“Also recorded” adds a separate entry of the source. Where no end group is shown, it is not given here. allenamide 1a = not defined here
How the values were obtained:
BSA = molecular target: T1, BSA (Bos taurus, UniProt P02769); experiment: Labelling BSA with 6-8, SDS-PAGE analysis; type: biochemical, bovine; settings: 10 nmol label, 1 nmol BSA, Tris-HCl pH 7.4, 37° C., 30 min
T1 construct: purchased
Procedure: 0.1 μmol/mL solution of BSA in H2O (10 μL, 1 nmol), 1.0 μmol/mL solution of 6, 7 and 8 in H2O (10 μL each, 10 nmol) and 80 μL of Tris-HCl buffer (pH 7.4) were mixed in 1 mL eppendorf tubes and incubated at 37° C. for 30 min.

glutathione (GSH; 2) = experiment: Modification of glutathione (2) using allenamide 1a; type: biochemical
Procedure: 6.5 mg glutathione (0.021 mmol) was dissolved in 0.5 mL ammonium carbonate buffer (pH 8.0) in a 4 mL glass vial. To this solution was added 7.3 mg of allenamide 1a (0.042 mmol; 2 eq.) in 0.5 mL THF and resulting solution was mixed well using a pipette. […] This mixture was centrifuged at 8000 rpm for 5 min. Liquid was carefully decanted and the solid precipitated was washed two times with THF. The precipitate after final washing was dried in vacuum to give 9.9 mg (97% yield) of white solid (modified glutathione).

[1] = Reaction of allenamide 1a with cysteine methyl ester (free thiol and amino groups)
Procedure: […] Reaction mixture was stirred for 30 minutes after which TLC confirmed the complete consumption of 1a. THF was evaporated on rotary evaporator and product was extracted two times in dichloromethane (2.5 mL each). Solvent was evaporated and product was purified by column chromatography (5% MeOH in dichloromethane) to get 32.8 mg (76% yield) of white solid (modified cysteine).

[2] = molecular target: T2, bovine insulin (reduced chain A and chain B) (Bos taurus, UniProt P01317); experiment: Modification of DTT-reduced bovine insulin using 1a; type: biochemical
T2 construct: purchased
T2 sequence (P01317 25-54 limits assumed): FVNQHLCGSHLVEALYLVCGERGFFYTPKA
T2 sequence (P01317 85-105 limits assumed): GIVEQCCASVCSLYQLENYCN
Procedure: After promising results in simple peptides, similar modification of cysteine residue in more complicated peptide sequences was also examined. A more complex pair of peptides generated from the DTT treatment of bovine insulin was tested (FIG. 10).
10 equivalents of solid DTT was added to 2 ml of a 10 mM solution of bovine insulin in 50 mM ammonium carbonate buffer of pH 8. The mixture after pipette mixing was allowed to stand at 70° C. under nitrogen atmosphere for 10 minutes. LCMS was done after due time and cooling to room temperature to confirm complete reduction of disulfide bonds. […] Similarly the m/Z values corresponding to chain A were obtained as 779, 1169 and 2338 corresponding to +3, +2 and +1 charge on chain A (molecular weight 2337.97). To 1 ml of the reduced insulin mixture was added 25 equivalents of 1a dissolved in 500 μL of THF and reaction mixture was allowed to stand at room temperature for 30 min. after pipette mixing. […] Thus, the expected molecular weight of modified chain B was 3743.67 (3397.67+346) and that of chain A was 3029.97 (2337.97+692) and the observed m/z values for modified chain B were at 750, 937, 1249 and 1873 corresponding to +5, +4, +3 and +2 charge and for chain A were at 1011 and 1515 corresponding to +3 and +2 charge on the chain. The site selectivity was further confirmed by MS/MS (FIGS. 11 and 12, respectively).

[3] = Reaction of 1a with lysine, serine and methionine under similar conditions; settings: similar conditions as for cysteine methyl ester
[4] = tested on: peptides CGKSRF (3), KSCGRF (4) and YDSQCFHRW (5); experiment: Modification of peptides 3, 4 and 5 with allenamide 1a; type: biochemical
Procedure: 100 μL of the peptide solution (250 μM in ammonium carbonate buffer of pH 8.0) was mixed with an equal amount of the solution of 1a (2.5 mM in ammonium carbonate buffer containing 5% THF). After pipette mixing, reaction mixture was allowed to stand at room temperature for 10-20 minutes. […] Site selectivity was established by LC-MS/MS.
(§1) The irreversibility of the conjugation product was tested with peptide 5 and GSH (2). No reversion to starting material 5 was observed when the conjugation product of 5 and 1a was incubated with excess (100 equivalent) glutathione for overnight at 37° C. […] The irreversibility of specific cysteine labelling may thus enable the possibility for the protein modification in intracellular environment.

[5] = molecular target: T3, BSA (Bovine Serum Albumin) (Bos taurus, UniProt P02769); experiment: Modification (alkylation) of BSA with compound 1a, trypsin digestion and LC-MS/MS; type: biochemical; settings: DTT-reduced BSA, 30 min at 37° C., pH 8.0
T3 construct: purchased
T3 sequence (P02769 25-607): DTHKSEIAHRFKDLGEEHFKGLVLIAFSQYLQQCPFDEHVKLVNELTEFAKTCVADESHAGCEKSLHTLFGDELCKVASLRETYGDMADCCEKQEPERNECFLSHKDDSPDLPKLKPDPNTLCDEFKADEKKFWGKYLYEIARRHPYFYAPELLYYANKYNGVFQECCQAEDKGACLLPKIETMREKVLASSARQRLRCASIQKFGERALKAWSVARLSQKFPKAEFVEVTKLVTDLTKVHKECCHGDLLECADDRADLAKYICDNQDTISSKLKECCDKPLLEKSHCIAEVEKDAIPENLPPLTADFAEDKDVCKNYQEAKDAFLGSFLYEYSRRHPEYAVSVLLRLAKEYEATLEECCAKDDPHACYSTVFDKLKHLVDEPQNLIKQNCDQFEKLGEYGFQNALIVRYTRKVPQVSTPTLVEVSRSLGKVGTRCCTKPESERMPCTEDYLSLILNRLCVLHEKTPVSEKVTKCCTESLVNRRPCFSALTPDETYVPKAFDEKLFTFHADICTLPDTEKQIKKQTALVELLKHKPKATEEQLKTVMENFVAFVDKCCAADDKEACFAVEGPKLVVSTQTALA
Procedure: 6.6 mg of BSA (0.1 μmol) was dissolved in 1 ml of ammonium carbonate buffer (pH 8.0). To this was added 2.3 mg solid DTT (15 μmol) and after pipette mixing resulting mixture was incubated over night at 37° C. 3.7 mg of 1a (21 μmol) dissolved in 1 ml of ammonium carbonate buffer (5% THF) was then added to it and incubated again for 30 min at 37° C. After due time, protein was purified through nano-separation filtration. The purified protein was subjected to trypsin digestion and LC-MS/MS using standard protocols (FIG. 13).

peptide 5 (YDSQCFHRW) = experiment: Modification of cysteine in peptide 5 using allenamides 1b-d; type: biochemical; settings: peptide sequence YDSQCFHRW; as determined by LCMS
Procedure: After pipette mixing, reaction mixture was allowed to stand at room temperature for 10-20 minutes. […] Site selectivity was established by LC-MS/MS.

TEM1 β-Lactamase (Bla) = TEM1 β-Lactamase (Bla) (Escherichia coli, UniProt P62593); experiment: Labelling TEM1 β-lactamase with 7, SDS-PAGE analysis; type: biochemical, bacterial; settings: Tris-HCl pH 7.4, 37° C., 30 min
Chain of TEM1 β-Lactamase (Bla) (P62593 24-286 limits assumed): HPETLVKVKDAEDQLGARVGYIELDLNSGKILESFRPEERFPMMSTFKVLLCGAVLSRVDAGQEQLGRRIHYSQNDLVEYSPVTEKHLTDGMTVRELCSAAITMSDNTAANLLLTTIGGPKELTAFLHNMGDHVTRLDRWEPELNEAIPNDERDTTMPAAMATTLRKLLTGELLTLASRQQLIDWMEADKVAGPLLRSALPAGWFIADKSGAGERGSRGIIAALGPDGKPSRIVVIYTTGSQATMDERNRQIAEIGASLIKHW
Procedure: For TEM1 β-Lactamase, 0.1 μmol/mL solution of β-Lactamase in H2O (10 μL, 1 nmol), 1.0 μmol/mL solution of 7 in H2O (10 μL, 10 nmol) and 80 μL of Tris-HCl buffer (pH 7.4) were mixed in a 1 mL eppendorf tube and incubated at 37° C. for 30 min. After due time, reaction mixture was subjected to SDS-PAGE analysis which confirmed no labelling. In second part of this experiment, 0.1 μmol/mL solution of β-Lactamase (1 mL) was heated with 1.0 μmol/mL solution of DTT (1 mL) at 80° C. for 10 min. After cooling down to room temperature, a 10 μL aliquot of this mixture was mixed with 10 μL of 7 (2.0 μmol/mL in H2O) and 80 μL of Tris-HCl buffer (pH 7.4) and incubated at 37° C. for 30 min.

[6] = Irreversibility of the conjugation products against excess thiol (LCMS); type: physicochemical; settings: excess (100 equivalent) glutathione, overnight at 37° C.
Procedure: as §1

T1 sequence (P02769 25-607): as the sequence (P02769 25-607) above

With C=C=CC(=O)NCCNC(=S)Nc1ccc2c(c1)C(=O)OC21c2ccc(O)cc2Oc2cc(O)ccc21 (single isomer, unassigned) [Compound 6] the “Labelling of BSA (SDS-PAGE)” value (BSA) was “labelling to have taken place successfully”.
In the case of C=C=CC(=O)NCc1ccccc1 [Allenamide 1a, N-benzylbuta-2,3-dienamide], the “Conversion of glutathione (LCMS)” value (glutathione (GSH; 2); 2 eq. 1a, ammonium carbonate buffer pH 8.0/THF, after 15 min) is reported as “complete conversion”, the “Site of modification in glutathione (NMR, LC-MS/MS)” value (glutathione (GSH; 2); cysteine thiol versus amino groups) is reported as “modification at the cysteine residue” and the “Reaction at the free amino group of cysteine methyl ester” value ([1]; even when 1a was used in excess) is reported as “No reaction”. The “Group of cysteine methyl ester involved in the reaction” value ([1]; gives product 1aa) was “Only the free thiol group”, the “Modification of reduced insulin chains (LCMS)” value ([2]; 25 equivalents of 1a, room temperature, 30 min) was “expected modification” and the “Molecules of allenamide included in chain A” value ([2]; chain A, from molecular weight increment 692) was “four molecules”. For the same compound, the “Molecules of allenamide included in chain B” value ([2]; chain B, from molecular weight increment 346) was “two molecules”, the “Product formation with lysine, serine and methionine” value [3] was “no product was obtained” and the “Site of modification in peptides 3, 4 and 5 (LCMS and LC-MS/MS)” value [4] was “selectively at cysteine”. The “Conversion of peptides 3, 4 and 5 (LCMS)” value ([4]; 250 μM peptide, 2.5 mM 1a, pH 8.0, room temperature, 10-20 minutes) was “quantitative conversion”, the “Reaction of other amino acid residues (histidine, lysine, tyrosine and other reactive side chains) with 1a” value ([4]; even after standing overnight) was “did not give any reaction” and the “Modification of cysteine residues of BSA (LC-MS/MS of tryptic peptides)” value [5] was “All cysteine residues in the detected peptides were found to be modified”.
With C=C=CC(=O)NCC(=O)OCC [Allenamide 1b, ethyl 2-(buta-2,3-dienamido)acetate] the Conversion (peptide 5 (YDSQCFHRW)) was “Quantitative”.
With C=C=CC(=O)NC1CCCCC1 [Allenamide 1c, N-cyclohexylbuta-2,3-dienamide] the Conversion (peptide 5 (YDSQCFHRW)) was “Quantitative”.
In the case of C=C=CC(=O)Nc1cccc2ccccc12 [Allenamide 1d, N-(naphthalene-1-yl)buta-2,3-dienamide], the Conversion (peptide 5 (YDSQCFHRW)) is reported as “Quantitative”.
For C=C=CC(=O)NCCNC(=O)CCCCC[N+]1=C(/C=C/C=C2/N(C)c3ccccc3C2(C)C)C(C)(C)c2ccccc21.[Cl-] [Compound 7], the “Labelling of BSA (SDS-PAGE)” value (BSA) was “labelling to have taken place successfully”, the “Labelling of β-Lactamase after DTT treatment (SDS-PAGE)” value (TEM1 β-Lactamase (Bla); DTT at 80° C. for 10 min before) was “successful labelling; also recorded: successful labeling was observed” and the “Labelling of β-Lactamase without DTT treatment (SDS-PAGE)” value (TEM1 β-Lactamase (Bla); no free cysteine) was “no labelling; also recorded: no labeling was observed”.
For “conjugation product of 5 and 1a: peptide YDSQCFHRW (5) modified at cysteine with allenamide 1a (YDSQC(allenamide 1a)FHRW-OH; not fully specified; reading uncertain)”, the “Reversion of conjugation product to starting material 5” value [6] was “No reversion”.

Reference: patent US10294205B2, “Allenamide as an orthogonal handle for selective modification of cysteine in peptides and proteins” (Nanyang Technological University, priority 2014, dated 2019)
